Assay results published in US20080280879A1, “SUBSTITUTED HETEROCYCLIC DERIVATIVES AND THEIR PHARMACEUTICAL USE AND COMPOSITIONS” (priority 2007, published 2008).
≈ marks a conversion by molar mass, not a printed value. Where “and” joins values, the source holds several entries; their conditions need not be identical. Equal values may be shown once.

Assays:
Format in all cases: cell-based, Staphylococcus aureus
Staph aureus 1146 [1] = assay: MIC, microtiter broth dilution (CLSI M7-A7), Assay 1, Table 12 column B, no serum; details: for MIC, column B: Staph aureus 1146, Assay 1, no serum
Outline: (§1)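 Broth microdilution in microtiter trays per CLSI M7-A7, interpreted per M100-S16; MIC (μg/ml) is the lowest concentration preventing macroscopically visible growth. Compounds were dissolved in DMSO at 10 mg/ml. Serum-containing runs used Mueller-Hinton Broth with 50% pooled inactivated human serum; repeated runs are reported as geometric means.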

Staph aureus 2811 = assay: MIC, microtiter broth dilution (CLSI M7-A7), Assay 1, Table 12 column D, no serum; details: for MIC, column D: Staph aureus 2811, Assay 1, no serum
Outline: as §1

Staph aureus 1031 [2] = assay: MIC, microtiter broth dilution (CLSI M7-A7), Assay 2, Table 12 column F, no serum; details: for MIC: Staphylococcus aureus, 1031, Staph aureus 1031, Assay 2, no serum; for MIC, column F: Staph aureus 1031, Assay 2, no serum
Description: (§2) The assays described herein include a panel of bacterial isolates of Staphylococcus aureus. Assay 1 comprises the strains noted in Columns A through E, and Assay 2 comprises the strains noted in Columns F through H. The assays are performed in microtiter trays according to Methods for Dilution Antimicrobial Susceptibility Tests for Bacteria that Grow Aerobically; Approved Standard-7th edition (M7-A7) and interpreted according to the Performance Standards for Antimicrobial Susceptibility Testing; 16th Informational Supplement (M100-S16) published by Clinical Laboratory Standards Institute (CLSI). The antibacterial activity is presented in the form of a minimum inhibitory concentration (MIC) value in μg/ml format. The MIC value represents the lowest concentration of drug measured which prevented macroscopically visible growth under the conditions and specific doses tested. The compounds were initially dissolved in DMSO as 30 mM stocks and diluted accordingly to adjust to a concentration of 10 mg/ml or the compounds were dissolved in DMSO at a concentration of 10 mg/ml. For assessment of activity in the presence of human serum, S. aureus 1146 and S. aureus 1031 were inoculated into Mueller-Hinton Broth with 50% pooled inactivated human serum. In some cases, compounds were tested more than once in a particular assay. Where noted, the MIC value shown in Table 12 represents the geometric mean of the data from multiple runs.
(§3) It should be understood that the data in columns A-H represents MIC data in μg/ml and the notation “<=” means ‘less than or equal to’.

Staph aureus 1095 MRSA = assay: MIC, microtiter broth dilution (CLSI M7-A7), Assay 1, Table 12 column A, no serum; details: Assay 1, no serum
Outline: as §1

Staph aureus 2810 = assay: MIC, microtiter broth dilution (CLSI M7-A7), Assay 2, Table 12 column H, no serum; details: for MIC: Staphylococcus aureus, 2810, Staph aureus 2810, Assay 2, no serum; for MIC, column H: Staph aureus 2810, Assay 2, no serum
Description: as §2, §3

Staph aureus 2812 = assay: MIC, microtiter broth dilution (CLSI M7-A7), Assay 1, Table 12 column E, no serum; details: for MIC, column E: Staph aureus 2812, Assay 1, no serum
Outline: as §1

Staph aureus 1031 [3] = assay: MIC in Mueller-Hinton Broth with 50% pooled inactivated human serum, Assay 2, Table 12 column G; details: for MIC: Staphylococcus aureus, 1031, Staph aureus 1031, Assay 2, 50% human serum; for MIC, column G: Staph aureus 1031, Assay 2, 50% human serum
Description: as §2, §3

Staph aureus 1146 [4] = assay: MIC in Mueller-Hinton Broth with 50% pooled inactivated human serum, Assay 1, Table 12; details: for MIC, column C: Staph aureus 1146, Assay 1, 50% human serum
Outline: as §1

COC(=O)[C@H]1CN(C[C@@H]2C[C@H]2c2ccccc2)CC[C@H]1CCC(O)c1ccnc2ccc(OC)cc12 (mixture of isomers) [Example 5, methyl (3R,4R)-4-[3-hydroxy-3-(6-methoxyquinolin-4-yl)propyl]-1-{[(trans)-2-phenylcyclopropyl]methyl}piperidine-3-carboxylate]
MIC (Staph aureus 1146 [1]; Staphylococcus aureus, 1146, Staph aureus 1146, Assay 1, no serum): 4 µg/mL
MIC (Staph aureus 2811; Staphylococcus aureus, 2811, Staph aureus 2811, Assay 1, no serum): 8 µg/mL
MIC (Staph aureus 1031 [2]): 4 µg/mL
MIC (Staph aureus 1095 MRSA; Staphylococcus aureus, MRSA): 2 µg/mL
MIC (Staph aureus 2810): 8 µg/mL
MIC (Staph aureus 2812; Staphylococcus aureus, 2812, Staph aureus 2812, Assay 1, no serum): 4 µg/mL
MIC (Staph aureus 1031 [3]): 64 µg/mL
MIC (Staph aureus 1146 [4]; Staphylococcus aureus, 1146, Staph aureus 1146, Assay 1, 50% human serum, read-out: MIC, column C): 32 µg/mL

4-{[2-(3-chloro-6-methoxyquinolin-4-yl)ethyl]amino}-1-[(2-phenylcyclopropyl)ethyl]zepane-4-carboxylic acid [Example 151]
MIC, column B (Staph aureus 1146 [1]): 4 µg/mL
MIC, column D (Staph aureus 2811): 2 µg/mL
MIC, column F (Staph aureus 1031 [2]): 2 µg/mL
MIC, column A (Staph aureus 1095 MRSA): 8 µg/mL
MIC, column H (Staph aureus 2810): 2 µg/mL
MIC, column E (Staph aureus 2812): 4 µg/mL
MIC, column G (Staph aureus 1031 [3]): 64 µg/mL
MIC, column C (Staph aureus 1146 [4]): 32 µg/mL

COc1ccc2nccc(C(O)CC[C@@H]3CCN(CC4CCc5nc(-c6ccccc6)ncc5C4)C[C@@H]3C(=O)O)c2c1 (stereo partly drawn) [Example 118, (3R,4R)-4-[3-hydroxy-3-(6-methoxyquinolin-4-yl)propyl]-1-[(2-phenyl-5,6,7,8-tetrahydroquinazolin-6-yl)methyl]piperidine-3-carboxylic acid]
MIC (Staph aureus 1031 [2]): > 64 µg/mL
MIC (Staph aureus 2810): > 64 µg/mL
MIC (Staph aureus 1031 [3]): > 64 µg/mL

COC(=O)[C@H]1CN(C2Cc3ccccc3C2)CC[C@H]1CCC(O)c1ccnc2ccc(OC)cc12 (stereo partly drawn) [Example 78, (3R,4R)-methyl 1-(2,3-dihydro-1H-inden-2-yl)-4-(3-hydroxy-3-(6-methoxyquinolin-4-yl)propyl)piperidine-3-carboxylate]
MIC (Staph aureus 1031 [2]): > 64 µg/mL
MIC (Staph aureus 2810): > 64 µg/mL
MIC (Staph aureus 1031 [3]): > 64 µg/mL

COc1ccc2nccc(C(O)CC[C@@H]3CCN(C4CN(c5ccccn5)C4)C[C@@H]3C(=O)O)c2c1 (stereo partly drawn) [Example 125, (3R,4R)-4-[3-hydroxy-3-(6-methoxyquinolin-4-yl)propyl]-1-(1-pyridin-2-ylazetidin-3-yl)piperidine-3-carboxylic acid]
MIC (Staph aureus 1031 [2]): > 64 µg/mL
MIC (Staph aureus 2810): 32 µg/mL (≈ 67.1 µM)
MIC (Staph aureus 1031 [3]): > 64 µg/mL

COc1ccc2nccc(C(O)CC[C@@H]3CCN(C[C@@H]4C[C@H]4c4ccccc4)C[C@@H]3C(=O)O)c2c1 (stereo partly drawn) [Example 85, (3R,4R)-4-[3-hydroxy-3-(6-methoxyquinolin-4-yl)propyl]-1-{[(tans)-2-phenylcyclopropyl]methyl}piperidine-3-carboxylic acid]
MIC, column B (Staph aureus 1146 [1]): 1.4142 µg/mL (≈ 2.98 µM)
MIC, column D (Staph aureus 2811): 1.4142 µg/mL (≈ 2.98 µM)
MIC, column F (Staph aureus 1031 [2]): 2 µg/mL (≈ 4.21 µM)
MIC, column A (Staph aureus 1095 MRSA): 4 µg/mL (≈ 8.43 µM)
MIC, column H (Staph aureus 2810): 2 µg/mL (≈ 4.21 µM)
MIC, column E (Staph aureus 2812): 2 µg/mL (≈ 4.21 µM)
MIC, column G (Staph aureus 1031 [3]): 4 µg/mL (≈ 8.43 µM)
MIC, column C (Staph aureus 1146 [4]): 5.6568 µg/mL (≈ 11.9 µM)

COC(=O)C1(NC[C@H](O)c2ccnc3ccc(OC)nc23)CCCN(C2CC(c3ccccc3)C2)CC1 (stereo partly drawn) [Example 160, methyl 4-((R)-2-hydroxy-2-(6-methoxy-1,5-naphthyridin-4-yl)ethylamino)-1-(3-phenylcyclobutyl)azepane-4-carboxylate]
MIC (Staph aureus 1031 [2]): 2 µg/mL (≈ 3.96 µM)
MIC (Staph aureus 2810): 2 µg/mL (≈ 3.96 µM)
MIC (Staph aureus 1031 [3]): 4 µg/mL (≈ 7.93 µM)

COc1ccc2nccc(C(O)CC[C@@H]3CCN(CC4CCc5nc(CC6CC6)ncc5C4)C[C@@H]3C(=O)O)c2c1 (stereo partly drawn) [Example 117, (3R,4R)-1-{[2-(cyclopropylmethyl)-5,6,7,8-tetrahydroquinazolin-6-yl]methyl}-4-[3-hydroxy-3-(6-methoxyquinolin-4-yl)propyl]piperidine-3-carboxylic acid]
MIC (Staph aureus 1031 [2]): > 64 µg/mL
MIC (Staph aureus 2810): > 64 µg/mL
MIC (Staph aureus 1031 [3]): > 64 µg/mL

4-{[2-(3-chloro-6-methoxyquinolin-4-yl)ethyl]mino}-1-(3-phenylcyclobutyl) azepane-4-carboxylic acid [Example 152]
MIC, column B (Staph aureus 1146 [1]): 0.125 µg/mL
MIC, column D (Staph aureus 2811): <=.0625 μg/ml
MIC, column F (Staph aureus 1031 [2]): <=.0625 μg/ml
MIC, column H (Staph aureus 2810): 0.125 µg/mL
MIC, column G (Staph aureus 1031 [3]): 2 µg/mL
MIC, column C (Staph aureus 1146 [4]): 1 µg/mL and 2 µg/mL

COc1ccc2nccc(C(O)CC[C@@H]3CCN(C4CC(c5ccccc5)C4)C[C@@H]3C(=O)O)c2c1 (single isomer, unassigned) [Example 3]
MIC, column B (Staph aureus 1146 [1]): <=.1768 μg/ml
MIC, column D (Staph aureus 2811): <=.25 μg/ml
MIC, column F (Staph aureus 1031 [2]): 0.5 µg/mL (≈ 1.05 µM)
MIC, column A (Staph aureus 1095 MRSA): 0.25 µg/mL (≈ 0.527 µM)
MIC, column H (Staph aureus 2810): 0.5 µg/mL (≈ 1.05 µM)
MIC, column E (Staph aureus 2812): 0.25 µg/mL (≈ 0.527 µM)
MIC, column G (Staph aureus 1031 [3]): 4 µg/mL (≈ 8.43 µM)
MIC, column C (Staph aureus 1146 [4]): 1.7818 µg/mL (≈ 3.75 µM)

COC(=O)[C@H]1CN(C2CCc3cc(F)ccc32)CC[C@H]1CCC(O)c1ccnc2ccc(OC)cc12 (stereo partly drawn) [Example 73, methyl (3R,4R)-1-(5-fluoro-2,3-dihydro-1H-inden-1-yl)-4-[3-hydroxy-3-(6-methoxyquinolin-yl)propyl]piperidine-3-carboxylate]
MIC, column F (Staph aureus 1031 [2]): >64 µg/mL
MIC, column H (Staph aureus 2810): >64 µg/mL
MIC, column G (Staph aureus 1031 [3]): >64 µg/mL

COc1ccc2nccc(C(O)CC[C@@H]3CCN(C4Cc5ccccc5C4)C[C@@H]3C(=O)O)c2c1 (stereo partly drawn) [Example 79, (3R,4R)-1-(2,3-dihydro-1H-inden-2-yl)-4-(3-hydroxy-3-(6-methoxyquinolin-4-yl)propyl)piperidine-3-carboxylic acid]
MIC (Staph aureus 1031 [2]): 8 µg/mL (≈ 17.4 µM)
MIC (Staph aureus 2810): 8 µg/mL (≈ 17.4 µM)
MIC (Staph aureus 1031 [3]): 64 µg/mL (≈ 139 µM)

COc1ccc2ncc(Cl)c(CCNC3(C(=O)O)CCCN(CC4CCc5nc(C)ncc5C4)CC3)c2c1 (centres unmarked) [Example 158, 4-{[2-(3-chloro-6-methoxyquinolin-4-yl)ethyl]amino}-1-[(2-methyl-5,6,7,8-tetra hydroquinazolin-6-yl)methyl]azepane-4-carboxylic acid]
MIC (Staph aureus 1031 [2]): 32 µg/mL (≈ 59.5 µM)
MIC (Staph aureus 2810): 32 µg/mL (≈ 59.5 µM)
MIC (Staph aureus 1031 [3]): > 64 µg/mL

COc1ccc2nccc(C(O)CC[C@@H]3CCN(CC4CCc5nc(N6CCCCC6)ncc5C4)C[C@@H]3C(=O)O)c2c1 (stereo partly drawn) [Example 120, (3R,4R)-4-[3-hydroxy-3-(6-methoxyquinolin-4-yl)propyl]-1-[(2-piperidin-1-yl-5,6,7,8-tetrahydroquinazolin-6-yl)methyl]piperidine-3-carboxylic acid]
MIC (Staph aureus 1031 [2]): > 64 µg/mL
MIC (Staph aureus 2810): > 64 µg/mL
MIC (Staph aureus 1031 [3]): > 64 µg/mL

COc1ccc2nccc(C(O)CC[C@@H]3CCN(CC4Cc5ccccc5C4)C[C@@H]3C(=O)O)c2c1 (stereo partly drawn) [Example 83, (3R,4R)-1-((2,3-dihydro-1H-inden-2-yl)methyl)-4-(3-hydroxy-3-(6-methoxyquinolin-4-yl)propyl)piperidine-3-carboxylic acid]
MIC (Staph aureus 1031 [2]): 8 µg/mL (≈ 16.9 µM)
MIC (Staph aureus 2810): 8 µg/mL (≈ 16.9 µM)
MIC (Staph aureus 1031 [3]): 64 µg/mL (≈ 135 µM)

COc1ccc2nccc(C(O)CC[C@@H]3CCN(C4CCCc5ccccc54)C[C@@H]3C(=O)O)c2c1 (stereo partly drawn) [Example 77, (3R,4R)-4-(3-hydroxy-3-(6-methoxyquinolin-4-yl)propyl)-1-(1,2,3,4-tetrahydronaphthalen-1-yl)piperidine-3-carboxylic acid]
MIC (Staph aureus 1031 [2]): > 64 µg/mL
MIC (Staph aureus 2810): > 64 µg/mL
MIC (Staph aureus 1031 [3]): > 64 µg/mL

COc1ccc2nccc(C(O)CC[C@@H]3CCN(CC4(O)Cc5ccccc5C4)C[C@@H]3C(=O)O)c2c1 (stereo partly drawn) [Example 84, (3R,4R)-1-((2-hydroxy-2,3-dihydro-1H-inden-2-yl)methyl)-4-(3-hydroxy-3-(6-methoxyquinolin-4-yl)propyl)piperidine-3-carboxylic acid]
MIC (Staph aureus 1031 [2]): > 64 µg/mL
MIC (Staph aureus 2810): > 64 µg/mL
MIC (Staph aureus 1031 [3]): > 64 µg/mL

COc1ccc2nccc(C(O)CC[C@@H]3CCN(C4CC(OCc5ccccc5)C4)C[C@@H]3C(=O)O)c2c1 (stereo partly drawn) [Example 20, (3R,4R)-1-[3-(benzyloxy)cyclobutyl]-4-[3-hydroxy-3-(6-methoxyquinolin-4-yl)propyl]piperidine-3-carboxylic acid]
MIC (Staph aureus 1031 [2]): 16 µg/mL (≈ 31.7 µM)
MIC (Staph aureus 2810): 16 µg/mL (≈ 31.7 µM)
MIC (Staph aureus 1031 [3]): 64 µg/mL (≈ 127 µM)

COC(=O)[C@H]1CN(CC2Cc3ccccc3C2)CC[C@H]1CCC(O)c1ccnc2ccc(OC)cc12 (stereo partly drawn) [Example 82, (3R,4R)-methyl 1-((2,3-dihydro-1H-inden-2-yl)methyl)-4-(3-hydroxy-3-(6-methoxyquinolin-4-yl)propyl)piperidine-3-carboxylate]
MIC (Staph aureus 1031 [2]): 8 µg/mL (≈ 16.4 µM)
MIC (Staph aureus 2810): 16 µg/mL (≈ 32.7 µM)
MIC (Staph aureus 1031 [3]): 32 µg/mL (≈ 65.5 µM)
